{"source": "patent EP4620466A1", "about": "“TRIMETHOXYSTYRYL DERIVATIVES FOR USE IN THE TREATMENT OF PACLITAXEL-RESISTANT CANCER” (Instituto de Investigación Biomédica de Salamanca De la …, priority 2024, dated 2025)", "assay_type_in_all_cases": "cell-based", "key": {"[1]": {"system": "CAL33 RPTX", "assay": "MTT cell viability assay in paclitaxel-resistant cell line", "conditions": "for sensitivity of paclitaxel-resistant cells (cell viability): CAL33 RPTX compared with parental CAL33, 24, 48 and 72 hours of exposure, six doses (Figures 1 and 2)", "procedure": "• Figure 1. Comparison of the effect on cell viability in the parental and paclitaxel-resistant CAL33 cell lines after 24, 48 and 72 hours of exposure to six different doses of paclitaxel. X axis, time (hours). Y axis, cell viability (%). • Figure 2. Comparison of the effect on cell viability in the parental and paclitaxel-resistant CAL33 cell lines after 24, 48 and 72 hours of exposure to six different doses of Compound 39. X axis, Compund 39 (nM). Y axis, cell viability (%). *p-value < 0.05. **p-value < 0.01. ***p-value < 0.001.\nIn order to characterise resistance to taxanes in HNSCC, a paclitaxel-resistant cell line was generated from the CAL33 cell line, derived from tongue carcinoma, following the method of progressively increasing the dose of cytotoxic agent on the cells in culture. The generation of a stable paclitaxel-resistant cell line was confirmed by an MTT cell viability assay, named CAL33 RPTX (Figure 1).\nIn order to search for an alternative treatment with a similar but effective cellular effect on paclitaxel-resistant HNSCC cells, a cell viability assay was performed to test the response to Compound 39 of the CAL33 and CAL33 RPTX cell lines."}, "[2]": {"system": "HeLa cells", "assay": "Cell proliferation assay (XTT), cytostatic activity", "conditions": "72-h treatment, XTT cell proliferation kit", "procedure": "[…] cells were seeded in 96-well plates and incubated in the presence or the absence of the indicated compounds at concentrations ranging from 10^-5 to 10^-12 M. The cytostatic activity was measured after 72-h treatments using the XTT (sodium 3'-[1-(phenylaminocarbonyl)-3,4-tetrazolium]-bis(4- methoxy-6-nitro)-benzenesulfonic acid hydrate) cell proliferation kit (Roche Molecular Biochemicals; Mannheim, Germany) following the manufacturer's specifications. Each condition was seeded in triplicate, and experiments were repeated three times to calculate IC values by non-linear regression fitting the data."}, "[3]": {"system": "HeLa cells", "assay": "Cell proliferation assay with and without verapamil (MDR transporter check)", "conditions": "for potency increase with addition of verapamil: with verapamil versus without"}, "[4]": {"conditions": "Homo sapiens, without verapamil (control), compounds for 72 h, read-out: potency in the absence of verapamil"}, "[5]": {"conditions": "read-out: potency in the presence of 10 µM verapamil, incubated with 10 µM verapamil for 2 h, then compounds for 72 h"}}}
{"smiles": "COc1cc(/C=C\\c2ccc3c(c2)c(C(N)=O)cn3C)cc(OC)c1OC", "note": "[Compound 39, (Z)-1-Methyl-5-(3,4,5-trimethoxystyryl)-1H-indole-3-carboxamide]", "values": [{"measurement": "sensitivity of paclitaxel-resistant cells (cell viability)", "setting": "[1]", "value": "maintain sensitivity"}, {"measurement": "effect on tumour cell viability", "setting": "[1]; at very low doses, CAL33 and CAL33 RPTX cell lines (Figure 2)", "value": "pronounced effect"}, {"measurement": "IC50", "setting": "[2]; Homo sapiens", "value": 1200, "unit": "nM"}]}
{"smiles": "COc1cc(OC)cc(N(C)S(=O)(=O)c2ccc3c(c2)c(C#N)cn3C)c1", "note": "[Compound 53, 3-cyano-N-(3,5-dimethoxyphenyl)-N,1-dimethyl-1H-indole-5-sulfonamide]", "values": [{"measurement": "IC50", "setting": "[2]; Homo sapiens", "value": "> 1000", "unit": "nM"}, {"measurement": "IC50", "setting": "[3]; [4]", "value": 551, "unit": "nM"}, {"measurement": "IC50", "setting": "[3]; [5]", "value": 642, "unit": "nM"}]}
{"smiles": "CC(=O)O[C@H]1C(=O)[C@@]2(C)[C@H]([C@H](OC(=O)c3ccccc3)[C@]3(O)C[C@H](OC(=O)[C@H](O)[C@@H](NC(=O)c4ccccc4)c4ccccc4)C(C)=C1C3(C)C)[C@]1(OC(C)=O)CO[C@@H]1C[C@@H]2O", "note": "[paclitaxel]", "values": [{"measurement": "sensitivity of paclitaxel-resistant cells (cell viability)", "setting": "[1]", "value": "resistant"}]}
{"smiles": "COc1cc(/C=C\\c2ccc3c(c2)c(C#N)cn3C)cc(OC)c1OC", "note": "[Compound 33, (Z)-1-Methyl-5-(3,4,5-trimethoxystyryl)-1H-indole-3-carbonitrile]", "values": [{"measurement": "potency increase with addition of verapamil", "setting": "[3]", "value": "more than 10 fold"}]}
{"smiles": "COc1cc(NS(=O)(=O)c2ccc3c(ccn3C)c2)cc(OC)c1", "note": "[Compound 45, N-(3,5-dimethoxyphenyl)-1-methyl-1H-indole-5-sulfonamide]", "values": [{"measurement": "IC50", "setting": "[2]; Homo sapiens", "value": 1400, "unit": "nM"}, {"measurement": "IC50", "setting": "[3]; [4]", "value": "> 1000", "unit": "nM"}, {"measurement": "IC50", "setting": "[3]; [5]", "value": "> 1000", "unit": "nM"}]}
{"smiles": "COc1ccc(CCN(C)CCCC(C#N)(c2ccc(OC)c(OC)c2)C(C)C)cc1OC", "note": "(centres unmarked) [Verapamil, verapamil, reference compound]", "values": [{"measurement": "effect on cell proliferation", "setting": "[3]; verapamil alone at the working concentrations (1 and 10 µM)", "value": "no effect"}]}
{"smiles": "COc1cc(OC)cc(N(C)S(=O)(=O)c2ccc3c(ccn3C)c2)c1", "note": "[Compound 47, N-(3,5-dimethoxyphenyl)-N,1-dimethyl-1H-indole-5-sulfonamide]", "values": [{"measurement": "IC50", "setting": "[2]; Homo sapiens", "value": 20.1, "unit": "nM"}, {"measurement": "IC50", "setting": "[3]; [4]", "value": 551, "unit": "nM"}, {"measurement": "IC50", "setting": "[3]; [5]", "value": 642, "unit": "nM"}]}
{"smiles": "COc1cc(N(C)S(=O)(=O)c2ccc3c(c2)c(C#N)cn3C)cc(OC)c1OC", "note": "[Compound 51, 3-Cyano-N,1-dimethyl-N-(3,4,5-trimethoxyphenyl)-1H-indole-5-sulfonamide]", "values": [{"measurement": "IC50", "setting": "[2]; Homo sapiens", "value": 12.3, "unit": "nM"}, {"measurement": "IC50", "setting": "[3]; [4]", "value": 12.3, "unit": "nM"}, {"measurement": "IC50", "setting": "[3]; [5]", "value": 10.6, "unit": "nM"}]}
{"smiles": "COc1cc(/C=C\\c2ccc3c(c2)c(/C=N/O)cn3C)cc(OC)c1OC", "note": "[Compound 31, (Z + E)-1-methyl-5-(3,4,5-trimethoxystyryl)-1H-indole-3-carbaldehyde oxime]", "values": [{"measurement": "potency increase with addition of verapamil", "setting": "[3]", "value": "more than 10 fold"}]}
{"smiles": "COc1cc(/C=C\\c2ccc3c(c2)c(C=O)cn3C)cc(OC)c1OC", "note": "[Compound 29, (Z)-1-Methyl-5-(3,4,5-trimethoxystyryl)-1H-indole-3-carbaldehyde]", "values": [{"measurement": "potency increase with addition of verapamil", "setting": "[3]", "value": "more than 10 fold"}]}
{"smiles": "COc1cc(NS(=O)(=O)c2ccc3c(c2)c(C=O)cn3C)cc(OC)c1OC", "note": "[Compound 48, 3-Formyl-1-methyl-N-(3,4,5-trimethoxyphenyl)-1H-indole-5-sulfonamide]", "values": [{"measurement": "IC50", "setting": "[2]; Homo sapiens", "value": 206, "unit": "nM"}, {"measurement": "IC50", "setting": "[3]; [4]", "value": 206, "unit": "nM"}, {"measurement": "IC50", "setting": "[3]; [5]", "value": 287, "unit": "nM"}]}
{"smiles": "COc1cc(NS(=O)(=O)c2ccc3c(ccn3C)c2)cc(OC)c1OC", "note": "[Compound 44, 1-Methyl-N-(3,4,5-trimethoxyphenyl)-1H-indole-5-sulfonamide]", "values": [{"measurement": "IC50", "setting": "[2]; Homo sapiens", "value": 10.8, "unit": "nM"}, {"measurement": "IC50", "setting": "[3]; [4]", "value": 10.8, "unit": "nM"}, {"measurement": "IC50", "setting": "[3]; [5]", "value": 8.4, "unit": "nM"}]}
{"smiles": "COc1cc(N(C)S(=O)(=O)c2ccc3c(c2)c(C=O)cn3C)cc(OC)c1OC", "note": "[Compound 49, 3-Formyl-N,1-dimethyl-N-(3,4,5-trimethoxyphenyl)-1H-indole-5-sulfonamide]", "values": [{"measurement": "IC50", "setting": "[2]; Homo sapiens", "value": 41, "unit": "nM"}, {"measurement": "IC50", "setting": "[3]; [4]", "value": 41.2, "unit": "nM"}, {"measurement": "IC50", "setting": "[3]; [5]", "value": 44.7, "unit": "nM"}]}
{"smiles": "COc1cc(OC)cc(N(C)S(=O)(=O)c2ccc3c(c2)c(C=O)cn3C)c1", "note": "[Compound 52, N-(3,5-dimethoxyphenyl)-3-formyl-N,1-dimethyl-1H-indole-5-sulfonamide]", "values": [{"measurement": "IC50", "setting": "[2]; Homo sapiens", "value": "> 1000", "unit": "nM"}, {"measurement": "IC50", "setting": "[3]; [4]", "value": "> 1000", "unit": "nM"}, {"measurement": "IC50", "setting": "[3]; [5]", "value": "> 1000", "unit": "nM"}]}
{"smiles": "COc1cc(N(C)S(=O)(=O)c2ccc3c(ccn3C)c2)cc(OC)c1OC", "note": "[Compound 46, N,1-dimethyl-N-(3,4,5-trimethoxyphenyl)-1H-indole-5-sulfonamide]", "values": [{"measurement": "IC50", "setting": "[2]; Homo sapiens", "value": 2.4, "unit": "nM"}, {"measurement": "IC50", "setting": "[3]; [4]", "value": 2.4, "unit": "nM"}, {"measurement": "IC50", "setting": "[3]; [5]", "value": 1.9, "unit": "nM"}]}
{"smiles": "C=C(c1cc(OC)c(OC)c(OC)c1)c1ccc2c(c1)c(CO)cn2C", "note": "[Compound 17, 1-Methyl-5-[1-(3,4,5-trimethoxyphenyl)vinyl]-1H-indol-3-ylmethanol]", "values": [{"measurement": "IC50", "setting": "[2]; Homo sapiens", "value": 310, "unit": "nM"}]}
{"smiles": "C=C(c1cc(Cl)nc(Cl)c1)c1ccc2c(c1)c(C=NO)cn2C", "note": "[Compound 61, 5-(1-(2,6-dichloropyridin-4-yl)vinyl)-1-methyl-1H-indole-3-carbaldehyde oxime]", "values": [{"measurement": "IC50", "setting": "[2]; Homo sapiens", "value": "> 1000", "unit": "nM"}]}
{"smiles": "C=C(c1cc(Cl)nc(Cl)c1)c1ccc2c(c1)c(C#N)cn2C", "note": "[Compound 62, 5-(1-(2,6-dichloropyridin-4-yl)vinyl)-1-methyl-1H-indole-3-carbonitrile]", "values": [{"measurement": "IC50", "setting": "[2]; Homo sapiens", "value": 80, "unit": "nM"}]}
{"smiles": "COc1cc(C(=O)c2ccc3c(c2)c(C=O)cn3C)cc(OC)c1OC", "note": "[Compound 9, 1-Methyl-5-[1-(3,4,5-trimethoxybenzoyl)]-1H-indole-3-carbaldehyde]", "values": [{"measurement": "IC50", "setting": "[2]; Homo sapiens", "value": 320, "unit": "nM"}]}
{"smiles": "C=C(c1cc(Cl)nc(SC)c1)c1ccc2c(c1)c(C#N)cn2C", "note": "[Compound 71]", "values": [{"measurement": "IC50", "setting": "[2]", "value": 100, "unit": "nM"}]}
{"smiles": "COc1ccc(C(C)c2ccc3c(ccn3C)c2)c(OC)c1OC", "note": "(centres unmarked) [Compound 14, 1-Methyl-5-(1-(2,3,4-trimethoxyphenyl)ethyl)-1H-indole]", "values": [{"measurement": "IC50", "setting": "[2]; Homo sapiens", "value": 310, "unit": "nM"}]}
{"smiles": "C=C(c1cc(SC)nc(N(C)C)c1)c1ccc2c(c1)c(C#N)cn2C", "note": "[Compound 96, 5-(1-(2-(dimethylamino)-6-(methylthio)pyridin-4-yl)vinyl)-1-methyl-1H-indole-3-carbonitrile]", "values": [{"measurement": "IC50", "setting": "[2]; Homo sapiens", "value": 600, "unit": "nM"}]}
{"smiles": "COc1cc(C(=O)c2ccc3c(ccn3C)c2)cc(OC)c1OC", "note": "[Compound 3, (1-methyl-1H-indol-5-yl)(3,4,5-trimethoxyphenyl)methanone]", "values": [{"measurement": "IC50", "setting": "[2]; Homo sapiens", "value": 25, "unit": "nM"}]}
{"smiles": "COc1cc(NS(=O)(=O)c2ccc3c(c2)c(C#N)cn3C)cc(OC)c1OC", "note": "[Compound 50, 3-Cyano-1-methyl-N-(3,4,5-trimethoxyphenyl)-1H-indole-5-sulfonamide]", "values": [{"measurement": "IC50", "setting": "[2]; Homo sapiens", "value": 21, "unit": "nM"}, {"measurement": "IC50", "setting": "[3]; [4]", "value": 21.4, "unit": "nM"}, {"measurement": "IC50", "setting": "[3]; [5]", "value": 25.5, "unit": "nM"}]}
{"smiles": "C=C(c1cc(OC)c(OC)c(OC)c1)c1ccc2c(c1)c(C(N)=O)cn2C", "note": "[Compound 25, 1-Methyl-5-(1-(3,4,5-trimethoxyphenyl)vinyl)-1H-indole-3-carboxamide]", "values": [{"measurement": "IC50", "setting": "[2]; Homo sapiens", "value": 2.5, "unit": "nM"}]}
{"smiles": "C=C(c1ccc2c(c1)c(C=NO)cn2C)c1ccc(OC)c(OC)c1OC", "note": "[Compound 20, 1-Methyl-5-[1-(2,3,4-trimethoxyphenyl)vinyl]-1H-indol-3-carbaldehyde oxime]", "values": [{"measurement": "IC50", "setting": "[2]; Homo sapiens", "value": 34, "unit": "nM"}]}
{"smiles": "COc1cc(C(=O)c2ccc3c(c2)c(C=O)cn3C)cc(SC)n1", "note": "[Compound 84, 5-(2-methoxy-6-(methylsulfanyl)isonicotinoyl)-1-methyl-1H-indole-3-carbaldehyde]", "values": [{"measurement": "IC50", "setting": "[2]; Homo sapiens", "value": "> 1000", "unit": "nM"}]}
{"smiles": "C=C(c1cc(Cl)nc(N(C)C)c1)c1ccc2c(c1)c(C#N)cn2C", "note": "[Compound 100, 5-(1-(2-chloro-6-(dimethylamino)pyridin-4-yl)vinyl)-1-methyl-1H-indole-3-carbonitrile]", "values": [{"measurement": "IC50", "setting": "[2]; Homo sapiens", "value": 600, "unit": "nM"}]}
